Values of other authors as cited in US20060127506A1, “Compositions of S-adenosyl-L-methionine” (priority 2004, published 2006).
Values belong to the molecule of their own block, whether it stands above or below them.

How the values were obtained:
[1] = tested on: S-adenosyl-L-methionine-dependent methyltransferases
[2] = tested on: nucleolar 2-O-methyltransferase; details: (S,S) vs (R,S) diastereomer
[3] = optical purity of 97-100% (Berna et al, US 20020010147)
[4] = oral; alcoholic liver cirrhosis; compared with placebo treated group
beta-adrenergic = details: L-form vs D-enantiomer

extent of binding relative to (S,S)-S-adenosyl-L-methionine (Other methyltransferases): to the same extent
inhibition of enzyme-catalyzed transmethylation reactions [1]: potent inhibitor
Structure (SMILES): C[S@@+](CC[C@@H](N)C(=O)O)C[C@H]1O[C@@H](n2cnc3c(N)ncnc32)[C@H](O)[C@@H]1O [(R,S)-S-adenosyl-L-methionine]

tightness of enzyme binding relative to (R,S)-S-adenosyl-L-methionine [2]: 10 fold
time for which optical purity is sustained before epimerization begins again [3]: ≤ 4 months
Structure (SMILES): C[S@@+](CC[C@H](N)C(=O)O)C[C@H]1O[C@@H](n2cnc3c(N)ncnc32)[C@H](O)[C@@H]1O [(S,S)-S-adenosyl-L-methionine]

Structure (SMILES): C[S+](CC[C@H](N)C(=O)[O-])C[C@H]1O[C@@H](n2cnc3c(N)ncnc32)[C@H](O)[C@@H]1O (stereo partly drawn) [S-adenosyl-L-methionine]
overall mortality and/or progression to liver transplant [4]: 12%

Structure (SMILES): CC(C)NCC(O)COc1cccc2ccccc12 (stereo not drawn) [propranolol]
potency of L-form relative to D-enantiomer (beta-adrenergic): 100 times
